Patent US7348317B2, “Aqueous compositions containing metronidazole” (Dow Pharmaceutical Sciences, priority 2001, dated 2008)

Legend:
Format in all cases: physicochemical
[1] = Physical stability of BCD solutions in gel vehicle stored at 5° C.; conditions: for Results after storage at 5° C.: monitored weekly for two weeks
Method: Different solutions according to Table 1 were made with varying concentrations of beta-cyclodextrin (BCD). The solutions of BCD were maintained at 5° C. monitored weekly for two weeks for signs of crystal or precipitate formation.

[2] = Physical stability / stable solubility of metronidazole in gel vehicle containing 0.5% BCD at 5° C.; conditions: for Result at 5° C., 1 week: BCD 0.5 % w/w, gel vehicle
Method: Different concentrations of metronidazole were prepared with the gel vehicle of Example 1 containing 0.5% BCD. The metronidazole (MTZ)/BCD solutions were maintained at 5° C. for one week.

[3] = Physical stability of 1.0% metronidazole gel solutions with niacin at 5° C.; conditions: MTZ 1.0 % w/w, pH 5.0+/−0.15, gel
Method: The pH was adjusted to 5.0+/−0.15 with trolamine. The solutions were maintained at 5° C. for one week to observe evidence of precipitation or crystal formation.

[4] = Physical stability of 1.0% metronidazole gel solutions with BCD and niacinamide at 5° C.
[5] = Physical stability of 1% metronidazole solutions with 0.5% niacin and varying BCD at 5° C.; conditions: for Results, 5° C., 1 week: MTZ 1.0 % w/w, niacin 0.5 % w/w, pH 5.0+/−0.15
Method: The solutions were maintained at 5° C. for one week to observe for crystal or precipitate formation.

[6] = Physical stability of 1.0% metronidazole gel solutions with BCD and niacinamide at 5° C.; conditions: Metronidazole 1.0 % w/w
Method: Various gel solutions of Table 1 were prepared with a concentration of 1.0% metronidazole and containing either 0.5% or 1.0% BCD and differing concentrations of niacinamide. The gels were maintained at 5° C. for one week to observe for precipitate or crystal formation.

[7] = BCD at its maximum soluble aqueous concentration (0.5%), 5° C.

SMILES: OC[C@H]1O[C@@H]2O[C@H]3[C@H](O)[C@@H](O)[C@@H](O[C@H]4[C@H](O)[C@@H](O)[C@@H](O[C@H]5[C@H](O)[C@@H](O)[C@@H](O[C@H]6[C@H](O)[C@@H](O)[C@@H](O[C@H]7[C@H](O)[C@@H](O)[C@@H](O[C@H]8[C@H](O)[C@@H](O)[C@@H](O[C@H]1[C@H](O)[C@H]2O)O[C@@H]8CO)O[C@@H]7CO)O[C@@H]6CO)O[C@@H]5CO)O[C@@H]4CO)O[C@@H]3CO [BCD, beta-cyclodextrin]
- saturated BCD solubility in the aqueous solutions ([1]; 5° C., aqueous solution such as gel): about 0.5%
- Results after storage at 5° C. ([1]; BCD 0.5 % w/w in gel vehicle of Table 1): Clear after 2 weeks
- Results after storage at 5° C. ([1]; BCD 0.6 % w/w in gel vehicle of Table 1): Crystals formed after 2 weeks
- Results after storage at 5° C. ([1]; BCD 0.7 % w/w in gel vehicle of Table 1): Crystals at one week
- Results after storage at 5° C. ([1]; BCD 0.9 % w/w in gel vehicle of Table 1): Crystals at one week
- Results after storage at 5° C. ([1]; BCD 1.0 % w/w in gel vehicle of Table 1): Crystals at one week
- Results after storage at 5° C. ([1]; BCD 1.2 % w/w in gel vehicle of Table 1): Crystals at one week
- Results after storage at 5° C. ([1]; BCD 1.4 % w/w in gel vehicle of Table 1): Crystals at one week
- Results after storage at 5° C. ([1]; BCD 1.5 % w/w in gel vehicle of Table 1): Crystals at one week

SMILES: Cc1ncc([N+](=O)[O-])n1CCO [MTZ, 1-(2-hydroxyethyl)-2-methyl-5-nitroimidazole]
- increase of stable solubility of MTZ by BCD [2, 7]: 0.1%
- stable solubility of MTZ in aqueous solution with BCD [2, 7]: 0.8%
- Result at 5° C., 1 week ([2]; MTZ 0.7 % w/w): Clear
- Result at 5° C., 1 week ([2]; MTZ 0.8 % w/w): Clear
- Result at 5° C., 1 week ([2]; MTZ 0.9 % w/w): Crystals formed
- stable solubility of MTZ in aqueous solution, unaided ([2]; aqueous solution such as a gel, 5° C., without solubility enhancer): 0.7%
- stable solubility of metronidazole in the gel vehicle ([2]; gel vehicle containing 0.5% BCD, 5° C.): about 0.8 % w/w
- Results, 5° C., 1 week ([3]; niacin 0.10 % w/w): Crystals formed
- Results, 5° C., 1 week ([3]; niacin 0.15 % w/w): Crystals formed
- Results, 5° C., 1 week ([3]; niacin 0.25 % w/w): Crystals formed
- Results, 5° C., 1 week ([3]; niacin 0.5 % w/w, seven out of eight samples showed crystal formation): Clear/Crystals formed*
- Results, 5° C., 1 week ([3]; niacin 1.0 % w/w): Clear
- Results, 5° C., 1 week ([3]; niacin 1.2 % w/w): Clear
- Results, 5° C., 1 week ([3]; niacin 1.5 % w/w): Clear
- Results, 5° C., 1 week ([3]; niacin 1.8 % w/w): Clear
- Results, 5° C., 1 week ([3]; niacin 2.0 % w/w): Clear
- Results, 5° C., 1 week ([3]; niacin […] w/w): Clear
- MTZ aqueous solubility with niacinamide [4]: 1%
- increase of MTZ aqueous solubility by niacinamide ([4]; 3% concentration of niacinamide): 0.3%
- solubility of MTZ above its unaided solubility with BCD and niacinamide combined ([4]; BCD at amount expected to yield 0.1% increase plus niacinamide at one third of the amount that raises solubility by 0.3%): 0.3%
- solubility of MTZ with niacin and BCD combined ([5]; 0.5% niacin combined with 0.5% BCD, pH of about 5): 1%
- Results, 5° C., 1 week ([5]; BCD 0.2 % w/w): Crystals formed
- Results, 5° C., 1 week ([5]; BCD 0.3 % w/w): Crystals formed
- Results, 5° C., 1 week ([5]; BCD 0.5 % w/w): Clear
- Results at 5° C., 1 week ([6]; BCD 0.5 % w/w, niacinamide 0.5 % w/w): Crystals formed
- Results at 5° C., 1 week ([6]; BCD 0.5 % w/w, niacinamide 1.0 % w/w): Clear
- Results at 5° C., 1 week ([6]; BCD 0.5 % w/w, niacinamide 2.0 % w/w): Clear
- Results at 5° C., 1 week ([6]; BCD 1.0 % w/w, niacinamide 0.5 % w/w): Precipitate formed
- Results at 5° C., 1 week ([6]; BCD 1.0 % w/w, niacinamide 1.0 % w/w): Clear
- Results at 5° C., 1 week ([6]; BCD 1.0 % w/w, niacinamide 2.0 % w/w): Clear

SMILES: NC(=O)c1cccnc1 [niacinamide]
- concentration of niacinamide required to obtain a stable aqueous gel solution of 1.0% metronidazole ([4]; niacinamide alone, no BCD): about 3%
